Experimental findings from PubChem BioAssay (NCI) are described below.

Among the test systems are DLD-1 colon; DMS 114 small cell lung; DMS 273 small cell lung; HOP-18 NSCLC; KM20L2 colon; M19-MEL melanoma; SN12K1 renal; SNB-78 CNS; XF 498 CNS; LXFL 529 NSCLC.
Assay in all cases: NCI anticancer screen, dose series, 48 h

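Compound exposure: 48 hours, 5 concentrations, 96-well plates. TGI is the concentration that stops growth completely.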 A value given as a limit tells only on which side of the number the result lay.

Consider `CN1CCc2[nH]c3ccccc3c2C1`, for which the TGI with DLD-1 colon, with DMS 114 small cell lung, in the assay with DMS 273 small cell lung, in the assay with HOP-18 NSCLC, in the assay with KM20L2 colon and in the assay with M19-MEL melanoma was above 100 µM in each case. Moreover, the TGI with SN12K1 renal, in the assay with SNB-78 CNS and in the assay with XF 498 CNS was above 100 µM in each case.
For the compound `O=C(Nc1ccc(Cl)cc1)c1cc2cc(N=Nc3ccccc3Cl)ccc2oc1=O`, the TGI was found to be 32.2 µM in the assay with DLD-1 colon; 25 µM with DMS 114 small cell lung; 96.9 µM with HOP-18 NSCLC; 46.8 µM with KM20L2 colon; 32.5 µM in the assay on LXFL 529 NSCLC; 53 µM in the assay on M19-MEL melanoma. Further, the TGI in the assay with SNB-78 CNS was found to be 79.7 µM; with XF 498 CNS it was 67.1 µM.
